Where two headings read alike, the source gives them in different places.
Assays:
[1] = molecular target: T1, STAT6 (Homo sapiens, UniProt P42226); assay: STAT6 Reporter Luciferase Assay (IL-13 stimulated HaCaT keratinocyte NanoLuc reporter cells); type: cell-based; conditions: read-out: Reporter EC50
T1 construct: stably transfected HaCaT keratinocyte cell line, which expresses NanoLuc luciferase reporter gene under the transcriptional control of the STAT6 responsive promoter; endogenous in cells; host or cells: HaCaT keratinocyte reporter cell line (stably transfected with a NanoLuc reporter)
T1 sequence (P42226 1-847): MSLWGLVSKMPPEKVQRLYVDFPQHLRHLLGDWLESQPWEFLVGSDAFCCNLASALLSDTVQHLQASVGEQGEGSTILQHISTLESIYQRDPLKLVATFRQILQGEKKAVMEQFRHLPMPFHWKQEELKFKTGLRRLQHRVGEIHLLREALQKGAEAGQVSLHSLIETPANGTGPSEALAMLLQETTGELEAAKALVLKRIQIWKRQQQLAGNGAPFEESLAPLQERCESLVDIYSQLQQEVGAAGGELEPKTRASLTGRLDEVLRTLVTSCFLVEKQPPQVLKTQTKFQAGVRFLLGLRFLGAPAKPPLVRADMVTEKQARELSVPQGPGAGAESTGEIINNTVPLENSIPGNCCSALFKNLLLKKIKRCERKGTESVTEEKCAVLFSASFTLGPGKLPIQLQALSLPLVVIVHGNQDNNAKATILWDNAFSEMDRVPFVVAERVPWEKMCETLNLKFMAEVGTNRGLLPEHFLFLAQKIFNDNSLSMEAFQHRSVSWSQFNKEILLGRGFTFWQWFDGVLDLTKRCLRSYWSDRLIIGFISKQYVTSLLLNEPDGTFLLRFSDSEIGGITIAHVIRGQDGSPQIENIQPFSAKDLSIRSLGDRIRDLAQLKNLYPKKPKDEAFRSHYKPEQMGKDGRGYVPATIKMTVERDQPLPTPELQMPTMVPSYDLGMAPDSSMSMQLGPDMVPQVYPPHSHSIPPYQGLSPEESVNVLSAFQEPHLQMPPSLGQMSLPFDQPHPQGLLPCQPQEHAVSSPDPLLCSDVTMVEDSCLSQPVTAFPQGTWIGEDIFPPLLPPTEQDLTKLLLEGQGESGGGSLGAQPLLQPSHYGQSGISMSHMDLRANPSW
Method in brief: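 Cells were plated overnight, washed, exposed to compound for two hours, stimulated with IL-13 (0.12 nM final) for four hours at 37 °C, and then lysed with Nano-Glo substrate for 15 min before luminescence reading.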

[2] = tested on: CCL17 secretion in peripheral human whole blood; assay: Human Whole Blood (HWB) CCL17 TR-FRET Assay (IL-13 stimulated CCL17 secretion); type: cell-based
Method in brief: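 Measured here: CCL17 in serum by TR-FRET (665/615 nm) after overnight (16 h) room-temperature detection. The blood, heparinized and compound-treated for 2 h, received IL-13 at 10 ng/mL final and was cultured 48 h at 37 °C.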

[3] = IL-13 stimulated HaCaT STAT6 NanoLuc reporter cells
[4] = Homo sapiens, 48 h, human whole blood, 10 ng/mL IL13, 48 hours
[5] = Homo sapiens, 48 h, human whole blood, IL-13 stimulated
[6] = STAT6 NanoLuc luciferase reporter, IL-13 stimulated HaCaT keratinocyte cells
[7] = Homo sapiens, 48 h, inhibition of CCL17 secretion in human whole blood, 10 ng/mL IL13, 48 hours

Row | SMILES | EC50 [1, 3] | EC50 [1, 6] | IC50 [2, 7] | further results
1 | CC(C)n1nc(C(=O)NCc2ccc(NC(=O)N3CC4(CCNCC4)C3)cc2)c2c1[C@@H](C)CN(c1ccc(C(=O)N(C)C)cc1)C2 [Example 626, (S)-N-(4-(2,7-diazaspiro[3.5]nonane-2-carboxamido)benzyl)-5-(4-(dimethylcarbamoyl)phenyl)-1-isopropyl-7-methyl-4,5,6,7-tetrahydro-1H-pyrazolo[4,3-c]pyridine-3-carboxamide] | 38 nM | – | – | IC50 [2, 4]: 88 nM
2 | CNC(=O)Nc1ccc(CNC(=O)c2nn(C(C)C)c3c2CN(c2ncc(N4CCCC4=O)cn2)C[C@@H]3C)cc1 [Example 481, (S)-1-isopropyl-7-methyl-N-(4-(3-methylureido)benzyl)-5-(5-(2-oxopyrrolidin-1-yl)pyrimidin-2-yl)-4,5,6,7-tetrahydro-1H-pyrazolo[4,3-c]pyridine-3-carboxamide] | 1 nM | – | – | IC50 [2, 5]: 14 nM
3 | CC(C)n1nc(C(=O)NCc2ccc(NC(=O)N3CCCC3CO)cc2)c2c1CCN(c1ccc(C(=O)N(C)C)cn1)C2 (racemic) [Example 174, rac-(R)-5-(5-(dimethylcarbamoyl)pyridin-2-yl)-N-(4-(2-(hydroxymethyl)pyrrolidine-1-carboxamido)benzyl)-1-isopropyl-4,5,6,7-tetrahydro-1H-pyrazolo[4,3-c]pyridine-3-carboxamide] | – | 40 nM | 212 nM | –
4 | CC(C)n1nc(C(=O)NCc2ccc(NC(=O)N(C)C)cc2)c2c1CCN(c1ccc(N3C(=O)CC[C@@H]3CO)cn1)C2 [Example 88, (R)-N-(4-(3,3-dimethylureido)benzyl)-5-(5-(2-(hydroxymethyl)-5-oxopyrrolidin-1-yl)pyridin-2-yl)-1-isopropyl-4,5,6,7-tetrahydro-1H-pyrazolo[4,3-c]pyridine-3-carboxamide] | – | 424 nM | 2080 nM | –
5 | CN(C)C(=O)Nc1ccc(CNC(=O)c2nn(C)c3c2CN(c2ccc(C(=O)N(C)C)cn2)CC32CC2)cc1 [Example 106, 5′-(5-(dimethylcarbamoyl)pyridin-2-yl)-N-(4-(3,3-dimethylureido)benzyl)-1′-methyl-1′,4′,5′,6′-tetrahydrospiro[cyclopropane-1,7′-pyrazolo[4,3-c]pyridine]-3′-carboxamide] | – | 8 nM | 49 nM | –
6 | CN(C)C(=O)Nc1ccc(CNC(=O)c2nn(C)c3c2CN(c2ccc(C(=O)N(C)C)cn2)CC3(F)F)cc1 [Example 70, 5-(5-(dimethylcarbamoyl)pyridin-2-yl)-N-(4-(3,3-dimethylureido)benzyl)-7,7-difluoro-1-methyl-4,5,6,7-tetrahydro-1H-pyrazolo[4,3-c]pyridine-3-carboxamide] | – | 8 nM | 81 nM | –
7 | CCn1nc(C(=O)NCc2ccc(NC(=O)N(C)C)cc2)c2c1C(C)CN(c1ccc(C(=O)N(C)C)cn1)C2 (racemic) [Example 71, rac-(R)-5-(5-(dimethylcarbamoyl)pyridin-2-yl)-N-(4-(3,3-dimethylureido)benzyl)-1-ethyl-7-methyl-4,5,6,7-tetrahydro-1H-pyrazolo[4,3-c]pyridine-3-carboxamide] | – | 2 nM | 14 nM | –
8 | CC(C)n1nc(C(=O)NCc2ccc(-c3ncc[nH]3)cc2)c2c1C[C@H](C)N(c1ncc(C(=O)N(C)C)cn1)C2 [Example 451, (S)-N-(4-(1H-imidazol-2-yl)benzyl)-5-(5-(dimethylcarbamoyl)pyrimidin-2-yl)-1-isopropyl-6-methyl-4,5,6,7-tetrahydro-1H-pyrazolo[4,3-c]pyridine-3-carboxamide] | 3 nM | – | – | IC50 [2, 5]: 47 nM
9 | CC(C)n1nc(C(=O)NCc2ccc(NC(=O)N(C)C)cc2)c2c1CCN(c1ccc(C(=O)N(C)C)cn1)C2 [Example 2, 5-(5-(Dimethylcarbamoyl)pyridin-2-yl)-N-(4-(3,3-dimethylureido)benzyl)-1-isopropyl-4,5,6,7-tetrahydro-1H-pyrazolo[4,3-c]pyridine-3-carboxamide] | – | 8 nM | 69 nM | –
10 | CN(C)C(=O)Nc1ccc(CNC(=O)c2nn(C)c3c2[C@H]2CCC[C@@H](C3)N2c2ccc(C(=O)N(C)C)cn2)cc1 (racemic) [Example 68, rac-(4R,8S)-10-(5-(dimethylcarbamoyl)pyridin-2-yl)-N-(4-(3,3-dimethylureido)benzyl)-1-methyl-4,5,6,7,8,9-hexahydro-1H-4,8-epiminocycloocta[c]pyrazole-3-carboxamide] | – | 9 nM | – | IC50 ([2]; inhibition of CCL17 secretion in human whole blood, 10 ng/mL IL13, 48 hours): 43 nM
11 | CC(C)n1nc(C(=O)NCc2ccc(NC(=O)NCC(F)F)cc2)c2c1[C@@H](C)CN(c1ccc(C(=O)N(C)C)cn1)C2 [Example 579, (S)-N-(4-(3-(2,2-difluoroethyl)ureido)benzyl)-5-(5-(dimethylcarbamoyl)pyridin-2-yl)-1-isopropyl-7-methyl-4,5,6,7-tetrahydro-1H-pyrazolo[4,3-c]pyridine-3-carboxamide] | 0.4 nM | – | – | IC50 [2, 4]: 8 nM
12 | CNC(=O)c1ccc(CNC(=O)c2nn(C(C)C)c3c2CN(c2ccc(C(=O)N(C)C)cc2)C[C@@H]3C)cc1 [Example 605, (S)-5-(4-(dimethylcarbamoyl)phenyl)-1-isopropyl-7-methyl-N-(4-(methylcarbamoyl)benzyl)-4,5,6,7-tetrahydro-1H-pyrazolo[4,3-c]pyridine-3-carboxamide] | 4 nM | – | – | IC50 [2, 4]: 37 nM
13 | CC(C)n1nc(C(=O)NCc2ccc(NC(=O)N3C[C@@H](F)[C@@H](F)C3)cc2)c2c1CCN(c1ccc(C(=O)N(C)C)cn1)C2 [Example 140, N-(4-((3R,4S)-3,4-difluoropyrrolidine-1-carboxamido)benzyl)-5-(5-(dimethylcarbamoyl)pyridin-2-yl)-1-isopropyl-4,5,6,7-tetrahydro-1H-pyrazolo[4,3-c]pyridine-3-carboxamide] | – | 12 nM | 144 nM | –
14 | CC(C)n1nc(C(=O)NCc2ccc(NC(=O)N3C[C@@H]4CC[C@H]3CO4)cc2)c2c1CCN(c1ccc(C(=O)N(C)C)cn1)C2 [Example 142, (1S,4S)-N-(4-((5-(5-(dimethylcarbamoyl)pyridin-2-yl)-1-isopropyl-4,5,6,7-tetrahydro-1H-pyrazolo[4,3-c]pyridine-3-carboxamido)methyl)phenyl)-2-oxa-5-azabicyclo[2.2.2]octane-5-carboxamide] | – | 15 nM | 39 nM | –
15 | CN(C)C(=O)Nc1ccc(CNC(=O)c2noc3c2CN(c2ccc(C(=O)N(C)C)cn2)CC3)cc1 [Example 28, 5-(5-(dimethylcarbamoyl)pyridin-2-yl)-N-(4-(3,3-dimethylureido)benzyl)-4,5,6,7-tetrahydroisoxazolo[4,5-c]pyridine-3-carboxamide] | – | 46 nM | 313 nM | –
16 | CCn1nc(C(=O)NCc2ccc(NC(=O)N(C)C)cc2)c2c1[C@@H](C)CN(c1ccc(C(=O)N3Cc4cccnc4C3)cn1)C2 [Example 477, (S)-5-(5-(6,7-dihydro-5H-pyrrolo[3,4-b]pyridine-6-carbonyl)pyridin-2-yl)-N-(4-(3,3-dimethylureido)benzyl)-1-ethyl-7-methyl-4,5,6,7-tetrahydro-1H-pyrazolo[4,3-c]pyridine-3-carboxamide] | 0.4 nM | – | – | IC50 [2, 5]: 4 nM
17 | CC(C)n1nc(C(=O)NCc2ccc(NC(=O)N3CCNCC3)c(Cl)c2)c2c1[C@@H](C)CN(c1ccc(C(=O)N(C)C)cc1)C2 [Example 596, (S)-N-(3-chloro-4-(piperazine-1-carboxamido)benzyl)-5-(4-(dimethylcarbamoyl)phenyl)-1-isopropyl-7-methyl-4,5,6,7-tetrahydro-1H-pyrazolo[4,3-c]pyridine-3-carboxamide] | 3 nM | – | – | IC50 [2, 4]: 45 nM
18 | CC(C)C1CN(c2ccc(C(=O)N(C)C)cn2)Cc2c(C(=O)NCc3ccc(NC(=O)N(C)C)cc3)nn(C)c21 (single isomer, unassigned) [Example 271, rel-(R or S)-5-(5-(dimethylcarbamoyl)pyridin-2-yl)-N-(4-(3,3-dimethylureido)benzyl)-7-isopropyl-1-methyl-4,5,6,7-tetrahydro-1H-pyrazolo[4,3-c]pyridine-3-carboxamide] | 11 nM | – | – | IC50 ([2]; human whole blood, IL-13 stimulated, 48 hours): 180 nM

Reference: patent publication US20250320213A1, “Nitrogen-Containing Heterocyclic Compounds” (Pfizer Inc., priority 2024, published 2025)
